Laboratory results as given in patent US20220315578A1, “BRD9 BIFUNCTIONAL DEGRADERS AND THEIR METHODS OF USE” (NOVARTIS AG, priority 2019, published 2022).

Target: T1, BRD9-GFP (Homo sapiens, UniProt Q9H8M2)
T1 construct: CHYSEL (2A cis-acting hydrolase element) remnant after GFP; mCherry is split off as a separate protein (C); expressed in transfected cells; host or cells: HEK293A cells (Invitrogen R70507), lentiviral transduction with pLenti6-BRD9-GFP-CHYSEL-mCherry, blasticidin selection
T1 sequence (Q9H8M2 1-597): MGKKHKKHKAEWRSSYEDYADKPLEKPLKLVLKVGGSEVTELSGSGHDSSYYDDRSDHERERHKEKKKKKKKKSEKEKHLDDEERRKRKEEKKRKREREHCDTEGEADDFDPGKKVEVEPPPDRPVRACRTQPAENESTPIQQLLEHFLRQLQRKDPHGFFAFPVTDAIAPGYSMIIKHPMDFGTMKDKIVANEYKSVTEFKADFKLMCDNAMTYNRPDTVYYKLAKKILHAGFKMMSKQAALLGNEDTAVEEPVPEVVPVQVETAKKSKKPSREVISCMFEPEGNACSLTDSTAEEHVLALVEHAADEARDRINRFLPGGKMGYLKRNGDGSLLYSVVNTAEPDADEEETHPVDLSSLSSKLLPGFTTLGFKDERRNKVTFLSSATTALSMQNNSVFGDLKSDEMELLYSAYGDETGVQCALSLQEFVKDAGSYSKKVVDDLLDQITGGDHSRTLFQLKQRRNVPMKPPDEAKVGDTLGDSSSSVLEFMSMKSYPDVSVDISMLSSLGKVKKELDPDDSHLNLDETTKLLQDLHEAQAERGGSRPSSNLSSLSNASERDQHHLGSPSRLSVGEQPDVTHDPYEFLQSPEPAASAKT
Experiment: BRD9-GFP protein abundance flow cytometry assay in HEK293A cells
Format: cell-based
Details: HEK293A-BRD9-GFP-CHYSEL-mCherry cells; for BRD9 Deg Amax %: 24 h, % protein remaining at the concentration at which maximum degradation is seen; for DC50: 24 h at 37° C., 10-point 1:3 dilution, concentration at which 50% maximal degradation was observed
Method in brief: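 HEK293A cells stably express bicistronic BRD9-GFP-CHYSEL-mCherry and received 24 h treatment at 37° C with a 10-point, 3-fold dilution series from […], in 0.1% DMSO and duplicate. Median GFP/mCherry ratio of 5,000 single cells by flow cytometry, normalized to mCherry-only cells (0%) and DMSO (100%), gave DC50 and Amax (% protein remaining).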

Compound	BRD9 Deg Amax %	DC50
COc1cc(-c2cn(C)c(=O)c3cnccc23)cc(OC)c1CCN1CCC(OC2CCN(C(=O)c3cccc(N4CCC(=O)NC4=O)c3)CC2)CC1 [Compound A40, 1-(3-(4-((1-(2,6-Dimethoxy-4-(2-methyl-1-oxo-1,2-dihydro-2,7-naphthyridin-4-yl)phenethyl)piperidin-4-yl)oxy)piperidine-1-carbonyl)phenyl)dihydropyrimidine-2,4(1H,3H)-dione]	14.20%	4 nM
COc1ccc(C(=O)N2CCC(OC3CCN(Cc4c(OC)cc(-c5cn(C)c(=O)c6cnccc56)cc4OC)CC3)CC2)cc1N1CCC(=O)NC1=O [Compound A42, 1-(5-(4-((1-(2,6-Dimethoxy-4-(2-methyl-1-oxo-1,2-dihydro-2,7-naphthyridin-4-yl)benzyl)piperidin-4-yl)oxy)piperidine-1-carbonyl)-2-methoxyphenyl)dihydropyrimidine-2,4(1H,3H)-dione]	13.53%	98 nM
CCCn1cc(-c2cc(OC)c(CCN3CCC(OC4CCN(C(=O)c5ccc(Cl)c(N6CCC(=O)NC6=O)c5)CC4)CC3)c(OC)c2)cc(C)c1=O [Compound B1, 1-(2-Chloro-5-(4-((1-(2,6-dimethoxy-4-(5-methyl-6-oxo-1-propyl-1,6-dihydropyridin-3-yl)phenethyl)piperidin-4-yl)oxy)piperidine-1-carbonyl)phenyl)dihydropyrimidine-2,4(1H,3H)-dione]	11.90%	2 nM
CCCCn1cc(-c2cc(OC)c(CN3CCC(OC4CCN(C(=O)c5ccc(OC)c(N6CCC(=O)NC6=O)c5)CC4)CC3)cc2OC)c2ccncc2c1=O [Compound B3, 1-(5-(4-((1-(4-(2-butyl-1-oxo-1,2-dihydro-2,7-naphthyridin-4-yl)-2,5-dimethoxybenzyl)piperidin-4-yl)oxy)piperidine-1-carbonyl)-2-methoxyphenyl)dihydropyrimidine-2,4(1H,3H)-dione]	10.95%	27 nM
CCCCn1cc(-c2cc(OC)c(CCN3CCC(OC4CCN(C(=O)c5ccc(Cl)c(N6CCC(=O)NC6=O)c5)CC4)CC3)c(OC)c2)c2ccncc2c1=O [Compound B4, 1-(5-(4-((1-(4-(2-butyl-1-oxo-1,2-dihydro-2,7-naphthyridin-4-yl)-2,6-dimethoxyphenethyl)piperidin-4-yl)oxy)piperidine-1-carbonyl)-2-chlorophenyl)dihydropyrimidine-2,4(1H,3H)-dione]	14.82%	3 nM
CCCCn1cc(-c2cc(OC)c(OC3CCN(CC4CCN(C(=O)c5ccc(OC)c(N6CCC(=O)NC6=O)c5)CC4)CC3)c(OC)c2)c2ccncc2c1=O [Compound B10, 1-(5-(4-((4-(4-(2-butyl-1-oxo-1,2-dihydro-2,7-naphthyridin-4-yl)-2,6-dimethoxyphenoxy)piperidin-1-yl)methyl)piperidine-1-carbonyl)-2-methoxyphenyl)dihydropyrimidine-2,4(1H,3H)-dione]	16.55%	6 nM
COc1cc(-c2cn(C)c(=O)c3cnccc23)c(OC)cc1CN1CCC(OC2CCN(CCn3cccc(CN4CCC(=O)NC4=O)c3=O)CC2)CC1 [Compound C1, 1-((1-(2-(4-(1-(2,5-Dimethoxy-4-(2-methyl-1-oxo-1,2-dihydro-2,7-naphthyridin-4-yl)benzyl)piperidin-4-yloxy)piperidin-1-yl)ethyl)-2-oxo-1,2-dihydropyridin-3-yl)methyl)dihydropyrimidine-2,4(1H,3H)-dione]	13.59%	29 nM
COc1cc(-c2cn(C)c(=O)c3cnccc23)c(OC)cc1CCN1CCC(OC2CCN(CCn3cccc(CN4CCC(=O)NC4=O)c3=O)CC2)CC1 [Compound C3, 1-((1-(2-(4-((1-(2,5-dimethoxy-4-(2-methyl-1-oxo-1,2-dihydro-2,7-naphthyridin-4-yl)phenethyl)piperidin-4-yl)oxy)piperidin-1-yl)ethyl)-2-oxo-1,2-dihydropyridin-3-yl)methyl)dihydropyrimidine-2,4(1H,3H)-dione]	17.50%	77 nM
COc1cc(-c2cn(C)c(=O)c3cnccc23)cc(OC)c1CCN1CCC(OC2CCN(CCn3cccc(CN4CCC(=O)NC4=O)c3=O)CC2)CC1 [Compound C4, 1-((1-(2-(4-((1-(2,6-dimethoxy-4-(2-methyl-1-oxo-1,2-dihydro-2,7-naphthyridin-4-yl)phenethyl)piperidin-4-yl)oxy)piperidin-1-yl)ethyl)-2-oxo-1,2-dihydropyridin-3-yl)methyl)dihydropyrimidine-2,4(1H,3H)-dione]	19.82%	17 nM

Continued by falling DC50, values first:

BRD9 Deg Amax %	DC50	Compound
13.54%	60 nM	COc1cc(-c2cn(C)c(=O)c3cnccc23)c(OC)cc1CCN1CCC(OC2CCN(C(=O)c3ccc(OC)c(N4CCC(=O)NC4=O)c3)CC2)CC1 [Compound A41, 1-(5-(4-((1-(2,5-Dimethoxy-4-(2-methyl-1-oxo-1,2-dihydro-2,7-naphthyridin-4-yl)phenethyl)piperidin-4-yl)oxy)piperidine-1-carbonyl)-2-methoxyphenyl)dihydropyrimidine-2,4(1H,3H)-dione]
11.95%	29 nM	COc1cc(-c2cn(C)c(=O)c3cnccc23)cc(OC)c1CN1CCC(OC2CCN(CCn3cccc(CN4CCC(=O)NC4=O)c3=O)CC2)CC1 [Compound C2, 1-((1-(2-(4-((1-(2,6-dimethoxy-4-(2-methyl-1-oxo-1,2-dihydro-2,7-naphthyridin-4-yl)benzyl)piperidin-4-yl)oxy)piperidin-1-yl)ethyl)-2-oxo-1,2-dihydropyridin-3-yl)methyl)dihydropyrimidine-2,4(1H,3H)-dione]
17.54%	7 nM	CCCCn1cc(-c2cc(OC)c(OCC3CCN(CC4CCN(C(=O)c5ccc(OC)c(N6CCC(=O)NC6=O)c5)CC4)CC3)c(OC)c2)c2ccncc2c1=O [Compound B7, 1-(5-(4-((4-((4-(2-butyl-1-oxo-1,2-dihydro-2,7-naphthyridin-4-yl)-2,6-dimethoxyphenoxy)methyl)piperidin-1-yl)methyl)piperidine-1-carbonyl)-2-methoxyphenyl)dihydropyrimidine-2,4(1H,3H)-dione]
13.14%	4 nM	CCCCn1cc(-c2ccc(OC3CCN(CC4CCN(C(=O)c5ccc(OC)c(N6CCC(=O)NC6=O)c5)CC4)CC3)c(OC)c2)c2ccncc2c1=O [Compound B5, 1-(5-(4-((4-(4-(2-butyl-1-oxo-1,2-dihydro-2,7-naphthyridin-4-yl)-2-methoxyphenoxy)piperidin-1-yl)methyl)piperidine-1-carbonyl)-2-methoxyphenyl)dihydropyrimidine-2,4(1H,3H)-dione]
17.89%	3 nM	CCCCn1cc(-c2cc(OC)c(OCC3CCN(CC4CCN(C(=O)c5ccc(Cl)c(N6CCC(=O)NC6=O)c5)CC4)CC3)c(OC)c2)c2ccncc2c1=O [Compound B8, 1-(5-(4-((4-((4-(2-butyl-1-oxo-1,2-dihydro-2,7-naphthyridin-4-yl)-2,6-dimethoxyphenoxy)methyl)piperidin-1-yl)methyl)piperidine-1-carbonyl)-2-chlorophenyl)dihydropyrimidine-2,4(1H,3H)-dione]
13.73%	2 nM	CCCn1cc(-c2cc(OC)c(CCN3CCC(OC4CCN(C(=O)c5ccc(Cl)c(N6CCC(=O)NC6=O)c5)CC4)CC3)c(OC)c2)c(C)c(C)c1=O [Compound B2, 1-(2-Chloro-5-(4-(1-(4-(4,5-dimethyl-6-oxo-1-propyl-1,6-dihydropyridin-3-yl)-2,6-dimethoxyphenethyl)piperidin-4-yloxy)piperidine-1-carbonyl)phenyl)dihydropyrimidine-2,4(1H,3H)-dione]
16.75%	1 nM	CCCCn1cc(-c2ccc(OC3CCN(CC4CCN(C(=O)c5ccc(Cl)c(N6CCC(=O)NC6=O)c5)CC4)CC3)c(OC)c2)c2ccncc2c1=O [Compound B6, 1-(5-(4-((4-(4-(2-butyl-1-oxo-1,2-dihydro-2,7-naphthyridin-4-yl)-2-methoxyphenoxy)piperidin-1-yl)methyl)piperidine-1-carbonyl)-2-chlorophenyl)dihydropyrimidine-2,4(1H,3H)-dione]
14.33%	1 nM	CCCCn1cc(-c2cc(OC)c(OC3CCN(CC4CCN(C(=O)c5ccc(Cl)c(N6CCC(=O)NC6=O)c5)CC4)CC3)c(OC)c2)c2ccncc2c1=O [Compound B9, 1-(5-(4-((4-(4-(2-butyl-1-oxo-1,2-dihydro-2,7-naphthyridin-4-yl)-2,6-dimethoxyphenoxy)piperidin-1-yl)methyl)piperidine-1-carbonyl)-2-chlorophenyl)dihydropyrimidine-2,4(1H,3H)-dione]
